Our source for the Activity, Drug uptake and inhibition values is ChEMBL document CHEMBL1212741, “Comparative efficacies of two antimony regimens to treat Leishmania braziliensis-induced cutaneous Leishmaniasis in rhesus macaques (Macaca mulatta)” (Antimicrob Agents Chemother, 2010).

Data set [1] deals with Rhesus monkey. In words: Toxicity in Leishmania braziliensis MHOM/BR/2000/CP13396 infected rhesus monkey assessed as incidence of toxicity symptoms at 20 mg/kg, im qd for 21 days administered 9 weeks postinfection. The following applies: in vivo. The arrangement: dose 20 mg/kg, route intramuscular. The class given is organism-based, Macaca mulatta.
The test system of data set [2] is Rhesus monkey. The data set is described as follows: Hepatotoxicity in Leishmania braziliensis MHOM/BR/2000/CP13396 infected rhesus monkey assessed as incidence of hepatocellular acidophilic necrosis at 20 mg/kg, im qd for 21 days administered 9 weeks postinfection. The class given is toxicity, organism-based, Macaca mulatta. The arrangement: dose 20 mg/kg, route intramuscular. The following applies: in vivo.

In data set [3] the test system is Rhesus monkey. In words: Hepatotoxicity in Leishmania braziliensis MHOM/BR/2000/CP13396 infected rhesus monkey assessed as incidence of hepatocellular acidophilic necrosis at 5 mg/kg, im qd for 21 days administered 9 weeks postinfection. The class given is toxicity, organism-based, Macaca mulatta. Also on record: dose 5 mg/kg, route intramuscular. The settings on record: in vivo.

The nature of data set [4]: Drug level in liver of Leishmania braziliensis MHOM/BR/2000/CP13396 infected rhesus monkey at 5 mg/kg, im qd for 21 days administered 9 weeks postinfection measured 55 days after compound dosing. The class given is ADME, organism-based, Macaca mulatta. The arrangement: dose 5 mg/kg, route intramuscular. The settings on record: in vivo, 1320 h.
Data set [5] is described as follows: Drug level in spleen of Leishmania braziliensis MHOM/BR/2000/CP13396 infected rhesus monkey at 20 mg/kg, im qd for 21 days administered 9 weeks postinfection measured 95 days after compound dosing. The arrangement: dose 20 mg/kg, route intramuscular. The settings on record: in vivo, 2280 h. The class given is ADME, organism-based, Macaca mulatta.
Data set [6] in a line: Drug level in kidney of Leishmania braziliensis MHOM/BR/2000/CP13396 infected rhesus monkey at 5 mg/kg, im qd for 21 days administered 9 weeks postinfection measured 95 days after compound dosing. It counts as ADME, organism-based, Macaca mulatta. The arrangement: dose 5 mg/kg, route intramuscular. The settings on record: in vivo, 2280 h.
Data set [7] can be described thus: Drug level in spleen of Leishmania braziliensis MHOM/BR/2000/CP13396 infected rhesus monkey at 5 mg/kg, im qd for 21 days administered 9 weeks postinfection measured 95 days after compound dosing. It counts as ADME, organism-based, Macaca mulatta. Also on record: dose 5 mg/kg, route intramuscular. The following applies: in vivo, 2280 h.
A short description of data set [8]: Drug level in liver of Leishmania braziliensis MHOM/BR/2000/CP13396 infected rhesus monkey at 5 mg/kg, im qd for 21 days administered 9 weeks postinfection measured 95 days after compound dosing. The following applies: in vivo, 2280 h. The arrangement: dose 5 mg/kg, route intramuscular. It counts as ADME, organism-based, Macaca mulatta.
Data set [9] can be described thus: Drug level in liver of Leishmania braziliensis MHOM/BR/2000/CP13396 infected rhesus monkey at 20 mg/kg, im qd for 21 days administered 9 weeks postinfection measured 95 days after compound dosing. The class given is ADME, organism-based, Macaca mulatta. The arrangement: dose 20 mg/kg, route intramuscular. The following applies: in vivo, 2280 h.
Data set [10] can be described thus: Drug level in kidney of Leishmania braziliensis MHOM/BR/2000/CP13396 infected rhesus monkey at 5 mg/kg, im qd for 21 days administered 9 weeks postinfection measured 55 days after compound dosing. The class given is ADME, organism-based, Macaca mulatta. Also on record: dose 5 mg/kg, route intramuscular. The following applies: in vivo, 1320 h.
Data set [11] can be described thus: Drug level in kidney of Leishmania braziliensis MHOM/BR/2000/CP13396 infected rhesus monkey at 20 mg/kg, im qd for 21 days administered 9 weeks postinfection measured 95 days after compound dosing. It counts as ADME, organism-based, Macaca mulatta. The arrangement: dose 20 mg/kg, route intramuscular. The settings on record: in vivo, 2280 h.
Data set [12] in a line: Drug level in liver of Leishmania braziliensis MHOM/BR/2000/CP13396 infected rhesus monkey at 20 mg/kg, im qd for 21 days administered 9 weeks postinfection measured 55 days after compound dosing. The class given is ADME, organism-based, Macaca mulatta. The arrangement: dose 20 mg/kg, route intramuscular. The settings on record: in vivo, 1320 h.
Data set [13] can be described thus: Drug level in spleen of Leishmania braziliensis MHOM/BR/2000/CP13396 infected rhesus monkey at 5 mg/kg, im qd for 21 days administered 9 weeks postinfection measured 55 days after compound dosing. The class given is ADME, organism-based, Macaca mulatta. Also on record: dose 5 mg/kg, route intramuscular. The settings on record: in vivo, 1320 h.
A short description of data set [14]: Drug level in kidney of Leishmania braziliensis MHOM/BR/2000/CP13396 infected rhesus monkey at 20 mg/kg, im qd for 21 days administered 9 weeks postinfection measured 55 days after compound dosing. The following applies: in vivo, 1320 h. The class given is ADME, organism-based, Macaca mulatta. Also on record: dose 20 mg/kg, route intramuscular.
For data set [15], the system named is Rhesus monkey. The data set is described as follows: Toxicity in Leishmania braziliensis MHOM/BR/2000/CP13396 infected rhesus monkey assessed as incidence of toxicity symptoms at 5 mg/kg, im qd for 21 days administered 9 weeks postinfection. The class given is organism-based, Macaca mulatta. The settings on record: in vivo. The arrangement: dose 5 mg/kg, route intramuscular.

Data set [16] in a line: Drug level in spleen of Leishmania braziliensis MHOM/BR/2000/CP13396 infected rhesus monkey at 20 mg/kg, im qd for 21 days administered 9 weeks postinfection measured 55 days after compound dosing. The settings on record: in vivo, 1320 h. Also on record: dose 20 mg/kg, route intramuscular. It counts as ADME, organism-based, Macaca mulatta.
The test system of data set [17] is Leishmania braziliensis. The data set is described as follows: […] activity against Leishmania braziliensis MHOM/BR/2000/CP13396 infected Rhesus monkey assessed as total decrease in parasite-induced skin lesions at 20 mg/kg, intramuscular daily for 21 days administered 9 weeks post infection. The arrangement: dose 20 mg/kg. It counts as functional, organism-based.

The subject of data set [18] is Leishmania braziliensis. In words: […] activity against Leishmania braziliensis MHOM/BR/2000/CP13396 infected Rhesus monkey assessed as relapse in parasite-induced skin lesions at 5 mg/kg, intramuscular daily for 21 days administered 9 weeks post infection. The class given is functional, organism-based. The arrangement: dose 5 mg/kg.

Calls of active or inactive are those of the source. The calls are words filed in the database; no cut-off is given here.

“MEGLUMINE ANTIMONATE [listing 1 of 2 here]”: the Activity entry in data set [1] is “Non-toxic”; in [2], “Toxic”; in [3], “Toxic”; in data set [15], “Non-toxic”. Moreover, the Drug uptake in [4] is 2913 ng/g; in [5], 2220 ng/g; in [6], 152 ng/g; in data set [7] it was 476.7 ng/g; in [8] it was 669.3 ng/g; in [9], 1800 ng/g. Besides, the Drug uptake is 500 ng/g in data set [10]; 313 ng/g in data set [11]; 4800 ng/g in data set [12]; 1433 ng/g in data set [13]; 698.3 ng/g in data set [14]; 1593 ng/g in [16].

Turning to “MEGLUMINE ANTIMONATE [listing 2 of 2 here]”, in [17], the inhibition result is “Active”. Also, in data set [18], the Activity is 50%.
